Assays:
Type in all cases: in vivo
[1] = test system: myocardial fibrosis (collagen I, collagen IV); assay: Assessment of myocardial fibrosis in HF-fed mice; conditions: for collagen deposition / collagen accumulation associated with high fat feeding: HF-fed mice, histology (FIG. 1); for Gene expression Collagen I / Gene expression Collagen IV: HF diet, real time RT-PCR
From the text: Adult (8-week-old) male […] mice (Precinct Animal Centre, Melbourne, Australia) and RAGE knockout (KO) mice^17 ([…] al., J Clin Invest. 113:1641-50, 2004) were housed in a temperature-controlled room on a 12-h light-dark cycle. Mice were placed on either a standard diet (AIN-93G; Specialty feeds, Perth AUS; n=10/group) or a high fat (HF) diet formulated to mimic a “Western fast food diet”, (SF05-031, Specialty Feeds; n=10). Both diets contained the same vitamin and calorie content. […] Animals receiving a HF diet were further randomized to receive alagebrium chloride at a dose of 1 mg/kg/day delivered by oral gavage. All groups were followed for 16 weeks. Previous studies have shown that obesity is associated with an increase in intramyocardial fibrosis. Gene expression of markers of fibrosis, including collagens and fibronectin were assessed by real-time quantitative RT-PCR, as detailed above. Perivascular collagen deposition was assessed by Van Giesen's Stain and interstitial fibrosis was assessed by staining with Picrosirus red staining of organized collagen. […] Paraffin-fixed cardiac sections were also stained for collagen IV by immunohistochemistry, as previously described^12 (Candido et al., Circ Res. 92:785-92, 2003).

[2] = test system: cardiac hypertrophy (β-MHC, α-MHC); assay: Assessment of cardiac hypertrophy in HF-fed mice; conditions: HF diet; for Mean myocyte diameter / Total LV mass / Total cardiac mass: 1 mg/kg/day oral gavage; for Gene expression Alpha MHC / Gene expression Beta MHC: real time RT-PCR
From the text: Adult (8-week-old) male […] mice (Precinct Animal Centre, Melbourne, Australia) and RAGE knockout (KO) mice^17 ([…] al., J Clin Invest. 113:1641-50, 2004) were housed in a temperature-controlled room on a 12-h light-dark cycle. Mice were placed on either a standard diet (AIN-93G; Specialty feeds, Perth AUS; n=10/group) or a high fat (HF) diet formulated to mimic a “Western fast food diet”, (SF05-031, Specialty Feeds; n=10). Both diets contained the same vitamin and calorie content. […] Animals receiving a HF diet were further randomized to receive alagebrium chloride at a dose of 1 mg/kg/day delivered by oral gavage. All groups were followed for 16 weeks. The total cardiac and isolated left ventricular mass was measured at sacrifice, and expressed adjusted for body surface area in square meters (m^2). […] Cardiac hypertrophy in obesity reactivates the fetal gene program, characterized by a switch to β-Myosin heavy chain (β-MHC) expression in the adult murine heart^8 (Ng et al., Circ Res. 68:1742-50, 1991). Gene expression of markers of pathological hypertrophy, β-MHC and α-MHC were assessed by real-time quantitative RT-PCR. This was performed using the TaqMan system based on real-time detection of accumulated fluorescence, as previously described^19 (Thomas et al., J Am Soc Nephrol. 16:2976-84, 2005). Gene expression was normalized to 18S mRNA and reported as ratios compared to the level of expression in untreated control mice, which were given the arbitrary value of one.

[3] = Physiological and biochemical parameters in HF-fed mice; conditions: HF diet, 1 mg/kg/day oral gavage; for Weight gain (% baseline): 16 weeks
From the text: Adult (8-week-old) male […] mice (Precinct Animal Centre, Melbourne, Australia) and RAGE knockout (KO) mice^17 ([…] al., J Clin Invest. 113:1641-50, 2004) were housed in a temperature-controlled room on a 12-h light-dark cycle. Mice were placed on either a standard diet (AIN-93G; Specialty feeds, Perth AUS; n=10/group) or a high fat (HF) diet formulated to mimic a “Western fast food diet”, (SF05-031, Specialty Feeds; n=10). Both diets contained the same vitamin and calorie content. […] Animals receiving a HF diet were further randomized to receive alagebrium chloride at a dose of 1 mg/kg/day delivered by oral gavage. All groups were followed for 16 weeks. The following parameters were serially measured in all groups: body weight; blood glucose, measured using a glucometer; systolic blood pressure, measured by tail-cuff plethysmography in conscious, warmed mice.

[4] = test system: AGEs (CML), S100 A8/A9, RAGE, AGE-R1, AGE-R3; assay: Accumulation of RAGE ligands and AGE receptor expression in HF-fed mice; conditions: for Gene expression RAGE: Wild-type mice, HF diet, real time RT-PCR, control = 1
From the text: Adult (8-week-old) male […] mice (Precinct Animal Centre, Melbourne, Australia) and RAGE knockout (KO) mice^17 ([…] al., J Clin Invest. 113:1641-50, 2004) were housed in a temperature-controlled room on a 12-h light-dark cycle. Mice were placed on either a standard diet (AIN-93G; Specialty feeds, Perth AUS; n=10/group) or a high fat (HF) diet formulated to mimic a “Western fast food diet”, (SF05-031, Specialty Feeds; n=10). Both diets contained the same vitamin and calorie content. […] Animals receiving a HF diet were further randomized to receive alagebrium chloride at a dose of 1 mg/kg/day delivered by oral gavage. All groups were followed for 16 weeks. […] Cardiovasc Diabetol. 5:6, 2006) was also assessed by commercial ELISA.

[5] = Wild-type mice, listed as AL, 1 mg/kg/day

**Q.** Which “collagen deposition / collagen accumulation associated with high fat feeding” value [1] does the source give for `Cc1sc[n+](CC(=O)c2ccccc2)c1C.[Cl-]` [alagebrium chloride, 3-(2-phenyl-2-oxoethyl)-4,5-dimethylthiazolium chloride] here?
**A.** unaffected

**Q.** And the “collagen deposition / collagen accumulation associated with high fat feeding” value ([1]; listed as alegebrium chloride)?
**A.** reduced

**Q.** What about the “Gene expression Collagen I” value ([1]; RAGE KO mice) of the same molecule?
**A.** 0.8 ± 0.1 AU/18s

**Q.** What about the “Gene expression Collagen IV” value ([1]; RAGE KO mice) of the same molecule?
**A.** 0.9 ± 0.1 AU/18s

**Q.** What about the “Gene expression Collagen I” value ([1]; Wild-type mice) of the same molecule?
**A.** 1.6 ± 0.1 AU/18s

**Q.** And the “Gene expression Collagen IV” value ([1]; Wild-type mice)?
**A.** 1.3 ± 0.1 AU/18s

**Q.** What about the Mean myocyte diameter ([2]; RAGE KO mice) of the same molecule?
**A.** 19.5 ± 0.6 μm

**Q.** What about the “Total LV mass” value ([2]; RAGE KO mice) of the same molecule?
**A.** 9.7 ± 0.3 g/m^2

**Q.** And the Total cardiac mass ([2]; RAGE KO mice)?
**A.** 13.7 ± 0.6 g/m^2

**Q.** What about the “Gene expression Alpha MHC” value ([2]; RAGE KO mice) of the same molecule?
**A.** reduced

**Q.** What about the “Gene expression Beta MHC” value ([2]; RAGE KO mice) of the same molecule?
**A.** 1.6 ± 0.2 AU/18s

**Q.** And the “Gene expression Alpha MHC” value ([2]; RAGE KO mice, listed as AL)?
**A.** 0.6 ± 0.2 AU/18s

**Q.** What about the “Total LV mass” value ([2]; Wild-type mice) of the same molecule?
**A.** 9.5 ± 0.3 g/m^2

**Q.** And the Total cardiac mass ([2]; Wild-type mice)?
**A.** 14.5 ± 0.4 g/m^2

**Q.** And the Mean myocyte diameter ([2]; Wild-type mice, 1 mg/kg/day)?
**A.** no effect

**Q.** What about the Mean myocyte diameter [2, 5] of the same molecule?
**A.** 19.7 ± 0.8 μm

**Q.** And the “Gene expression Alpha MHC” value ([2]; Wild-type mice)?
**A.** reduced

**Q.** What about the “Gene expression Beta MHC” value ([2]; Wild-type mice) of the same molecule?
**A.** no effect

**Q.** And the “Gene expression Alpha MHC” value ([2]; Wild-type mice, listed as AL)?
**A.** 0.7 ± 0.2 AU/18s

**Q.** What about the “Gene expression Beta MHC” value ([2]; Wild-type mice, listed as AL) of the same molecule?
**A.** 2.5 ± 0.3 AU/18s

**Q.** What about the Glucose ([3]; RAGE KO mice) of the same molecule?
**A.** 13.7 ± 0.7 mmol/L

**Q.** What about the “Weight gain (% baseline)” value ([3]; RAGE KO mice) of the same molecule?
**A.** 44 ± 7 % baseline

**Q.** What about the “Weight gain (% baseline)” value ([3]; Wild-type mice, 1 mg/kg/day) of the same molecule?
**A.** reduced

**Q.** And the “Weight gain (% baseline)” value [3, 5]?
**A.** 27 ± 2 % baseline

**Q.** What about the Glucose ([3]; Wild-type mice, 1 mg/kg/day) of the same molecule?
**A.** equivalent changes

**Q.** And the Glucose [3, 5]?
**A.** 15.1 ± 0.5 mmol/L

**Q.** And the “increase in S100 A8/A9 following HF feeding” value ([4]; HF-fed mice, ELISA (FIG. 3))?
**A.** attenuated

**Q.** And the “Gene expression RAGE” value [4]?
**A.** prevented

**Q.** What about the “Gene expression RAGE” value ([4]; listed as AL) of the same molecule?
**A.** 1.0 ± 0.2 AU/18s

**Q.** And the “AGE accumulation (ELISA for CML-modified protein)” value ([4]; both wild type and RAGE KO mice, HF diet (FIG. 3))?
**A.** markedly reduced

Source: patent US20090088461A1, “Methods of Treating or Preventing Cardiac Disease Associated With a High Fat Diet” (Synvista Therapeutics, Inc., priority 2007, published 2009)
